According to patent publication US9029366B2, “Substituted bicyclic alkoxy pyrazole analogs as allosteric modulators of mGluR5 receptors” (Vanderbilt University, priority 2012, dated 2015):

Experiments:
human mGluR5 = human mGluR5 (Homo sapiens, UniProt P41594); experiment: Cell-based functional Ca2+ mobilization assay (FDSS), potentiation of glutamate EC20 response, HEK293A cells transfected with human mGluR5a (H10H or H12H cell line); details: H10H cell line expressing recombinant human mGluR5, in presence of glutamate EC20, ** = compound is an antagonist; for EC50: read-out: pEC50 (converted); for Emax: HEK293-A, % of maximal glutamate response
human mGluR5, sequence (P41594 21-1180 isoform P41594-2 limits assumed): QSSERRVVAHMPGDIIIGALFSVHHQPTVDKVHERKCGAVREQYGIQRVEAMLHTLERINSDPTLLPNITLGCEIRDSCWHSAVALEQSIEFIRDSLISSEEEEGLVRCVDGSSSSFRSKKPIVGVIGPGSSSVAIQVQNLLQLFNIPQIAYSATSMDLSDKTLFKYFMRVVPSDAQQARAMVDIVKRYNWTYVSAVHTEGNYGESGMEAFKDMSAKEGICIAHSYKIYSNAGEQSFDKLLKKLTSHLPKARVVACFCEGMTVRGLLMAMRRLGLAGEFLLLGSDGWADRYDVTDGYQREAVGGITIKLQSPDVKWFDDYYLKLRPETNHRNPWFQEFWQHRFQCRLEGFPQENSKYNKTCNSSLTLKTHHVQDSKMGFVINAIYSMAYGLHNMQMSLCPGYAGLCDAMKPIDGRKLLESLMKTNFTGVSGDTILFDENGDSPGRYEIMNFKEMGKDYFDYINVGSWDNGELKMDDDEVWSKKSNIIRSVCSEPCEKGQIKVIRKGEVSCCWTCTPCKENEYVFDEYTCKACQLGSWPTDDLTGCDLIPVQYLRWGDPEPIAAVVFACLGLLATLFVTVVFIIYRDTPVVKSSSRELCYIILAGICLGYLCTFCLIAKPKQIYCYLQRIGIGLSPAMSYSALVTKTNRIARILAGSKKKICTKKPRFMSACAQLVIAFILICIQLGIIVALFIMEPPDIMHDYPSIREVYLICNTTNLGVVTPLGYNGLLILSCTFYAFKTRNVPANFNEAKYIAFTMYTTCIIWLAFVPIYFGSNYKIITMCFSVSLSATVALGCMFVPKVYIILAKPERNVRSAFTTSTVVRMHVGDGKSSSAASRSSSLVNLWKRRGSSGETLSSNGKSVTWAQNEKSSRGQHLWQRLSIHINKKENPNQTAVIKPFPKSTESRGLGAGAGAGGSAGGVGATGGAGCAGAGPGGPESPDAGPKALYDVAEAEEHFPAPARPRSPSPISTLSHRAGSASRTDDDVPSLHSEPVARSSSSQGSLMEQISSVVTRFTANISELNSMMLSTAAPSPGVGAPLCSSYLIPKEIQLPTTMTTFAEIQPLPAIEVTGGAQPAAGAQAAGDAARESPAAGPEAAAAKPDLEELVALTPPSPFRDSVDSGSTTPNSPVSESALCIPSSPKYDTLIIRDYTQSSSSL
Protocol: Human embryonic kidney (HEK) cells transfected with rat mGluR5 were plated in clear bottom assay plates for assay in a Functional Drug Screening System (FDSS). In the alternative assay, HEK cells transfected with human mGluR5 were plated for assay in the FDSS. In some cases the HEK cells transfected with human mGluR5 are the H10H cell line. Alternatively, the HEK cells transfected with human mGluR5 are the H12H cell line. […] The cells were loaded with a Ca^2+-sensitive fluorescent dye (e.g., Fluo-4), and the plates were washed and placed in the FDSS instrument. After establishment of a fluorescence baseline for about three seconds, the compounds of the present invention were added to the cells, and the response in cells was measured. Five minutes later, an mGluR5 agonist (e.g., glutamate, 3,5-dihydroxyphenylglycine, or quisqualate) was added to the cells, and the response of the cells was measured.
The above described assay can be operated in two modes. In the first mode, a range of concentrations of the present compounds were added to cells, followed by a single fixed concentration of agonist. If a compound acted as a potentiator, an EC50 value for potentiation and a maximum extent of potentiation by the compound at this concentration of agonist was determined by non-linear curve fitting. In the second mode, several fixed concentrations of the present compounds were added to various wells on a plate, followed by a range of concentrations of agonist for each concentration of present compound; the EC50 values for the agonist at each concentration of compound were determined by non-linear curve fitting. A decrease in the EC50 value of the agonist with increasing concentrations of the present compounds (a leftward shift of the agonist concentration-response curve) is an indication of the degree of mGluR5 potentiation at a given concentration of the present compound. An increase in the EC50 value of the agonist with increasing concentrations of the present compounds (a rightward shift of the agonist concentration-response curve) is an indication of the degree of mGluR5 antagonism at a given concentration of the present compound. The second mode also indicates whether the present compounds also affect the maximum response to mGluR5 to agonists.
Human mGluR5a cDNA in pCMV6-XL6 mammalian expression plasmid was purchased from OriGene Technologies, Inc. (catalogue number SC326357) and subcloned into pcDNA3.1(−). Human embryonic kidney (HEK)293A cells were then transfected with human mGluR5a pcDNA3.1(−) using LipofectAmine2000 (Invitrogen) and monoclones were selected and tested for functional response using a Ca^2+ mobilization assay. Monoclones were named for the species (“H” for human) plus the location on the plate (e.g. “10H”).
HEK cells transfected with the human mGluR5a receptor (H10H or H12H cell line) were plated at 15,000 cells/well in clear-bottomed poly-D-lysine-coated assay plates (BD Falcon) in glutamate-glutamine-free growth medium and incubated overnight at 37° C. and 5% CO2. Cell-lines used were either the H10H or H12H cell-lines expressing the human mGluR5 receptor. The following day, the growth medium was removed and the cells were washed with assay buffer containing 1× Hank's balanced salt solution (Invitrogen, Carlsbad, Calif.), 20 mM HEPES, 2.5 mM probenecid, pH 7.4 and left with 20 μL of this reagent. Following this step, the cells were loaded with calcium indicator dye, fluo-4 AM, to a final concentration of 2 μM and incubated for 40-45 min at 37° C. The dye solution was removed and replaced with assay buffer. Cell plates were held for 10-15 min at room temperature and were then loaded into the Functional Drug Screening System 6000 (FDSS 6000, Hamamatsu, Japan).
After establishment of a fluorescence baseline for about 3 seconds, the compounds of the present invention were added to the cells, and the response in cells was measured.

[1] = tested on: amphetamine-induced hyperlocomotion in male Sprague-Dawley rats; experiment: Reversal of amphetamine-induced hyperlocomotion (rat hyperlocomotion assay); assay type: in vivo; details: vehicle 20% HP-β-CD
Protocol: A suitable assay for determination of the in vivo effects of the disclosed compounds is the induced hyperlocomotion animal model. Briefly, locomotor activity can be assessed as mean distance traveled (cm) in standard 16×16 photocell testing chambers measuring 43.2 cm (Length)×43.2 cm (Width)×30.5 cm (Height) (Med Associates, St. Albans, Vt.). Animals are habituated to individual activity chambers for at least 30 min prior to drug administration. Following administration of drug or vehicle, activity is recorded for a 90 minute time period. Data are expressed as the mean (±SEM) distance traveled recorded in 5 min intervals over the test period. The data are analyzed using repeated measures analysis of variance (ANOVA) followed by post-hoc testing using Dunnett's test, when appropriate. A difference is considered significant when p≦0.05.
The study was carried out using male Sprague-Dawley rats weighing 225 g-275 g, between 2-3 months old (Harlan, Inc., Indianapolis, Ind.). They were kept in the animal care facility certified by the American Association for the Accreditation of Laboratory Animal Care (AALAC) under a 12-hour light/dark cycle (lights on: 6 a.m.; lights off: 6 p.m.) and had free access to food and water. The experimental protocols performed during the light cycle were approved by the Institutional Animals Care and Use Committee of Vanderbilt University and conformed to the guidelines established by the National Research Council Guide for the Care and Use of Laboratory Animals
Locomotor activity was assessed as mean distance traveled (cm) in Smart Open Field locomotor activity test chambers (Hamilton-Kinder, San Diego, Calif.) with 16×16 photobeams with chambers measuring 43.2 cm (Length)×43.2 cm (Width)×30.5 cm (Height) (Med Associates, St. Albans, Vt.). The animals were habituated for 30 min and then dosed with vehicle or test compound. The rats were then placed into cages. At 60 min, all rats were injected subcutaneously with 1 mg/kg amphetamine or vehicle and then monitored for an additional 60 min. Animals are monitored for a total of 120 minutes.
Data are expressed as the mean (±SEM) distance traveled recorded in 5 min intervals over the test period. The data was analyzed using repeated measures analysis of variance (ANOVA) followed by post-hoc testing using Dunnett's test, when appropriate. A difference was considered significant when p≦0.05. The data for the dose-response studies were analyzed by a between-group analysis of variance. If there was a main effect of dose, then each dose group was compared with the vehicle amphetamine group. The calculations were performed using JMP IN 8 (SAS Institute, Cary, N.C.) statistical software and graphed using SigmaPlot9 (Saugua, Mass.).
Amphetamine sulfate was obtained from Sigma (Cat #A5880-1G; St. Louis, Mo.) and 10 mg was dissolved in 10 ml of water. Test compound, 2-(benzyloxy)-5-[(4-fluorophenyl)carbonyl]-4,5,6,7-tetrahydropyrazolo[1,5-a]pyrazine, was formulated in a volume of 10 ml with an amount of drug appropriate to the dosage indicated. The appropriate amount of compound was mixed into a 20% 2-hydroxypropyl-β-cyclodextrin (2-HP-β-CD) solution. The solution was formulated so that animals were injected with a volume equal to […]. The mixture was then ultrahomogenized on ice for 2-3 minutes using the Dismembrator (Fisher Scientific Model 150T). Then the pH was checked using 0-14 EMD strips and adjusted to a pH of 6-7 if necessary. […]

Structure (SMILES) | melting point [°C] | EC50 (human mGluR5) [nM] | Emax (human mGluR5) [%] | % Reversal of amphetamine-induced hyperlocomotion ([1]; 3 mg/kg test compound p.o. + 1 mg/kg Amph s.c.) [%] | % Reversal of amphetamine-induced hyperlocomotion ([1]; 10 mg/kg test compound p.o. + 1 mg/kg Amph s.c.) [%] | % Reversal of amphetamine-induced hyperlocomotion ([1]; 30 mg/kg test compound p.o. + 1 mg/kg Amph s.c.) [%] | % Reversal of amphetamine-induced hyperlocomotion ([1]; 56.6 mg/kg test compound p.o. + 1 mg/kg Amph s.c.) [%] | % Reversal of amphetamine-induced hyperlocomotion ([1]; 100 mg/kg test compound p.o. + 1 mg/kg Amph s.c.) [%]
N#Cc1cc(F)cc(C(=O)N2CCn3nc(OCc4cccc(F)c4)cc3C2)c1 [Example B101] | 118.2 | > 30200 | 32 |  |  |  |  | 
O=C(c1ccc(F)cc1F)N1CCn2nc(OCc3ccccc3)cc2C1 [Example B102] | 182.1 | 148 | 76 |  |  |  |  | 
O=C(c1cc(F)cc(F)c1)N1CCn2nc(OCc3ccccc3)cc2C1 [Example B104] | 165.2 | 138 | 44.5 |  |  |  |  | 
N#Cc1cccc(COc2cc3n(n2)CCN(C(=O)c2cccc(F)c2)C3)c1 [Example B106] | 103.3 | 166 | 37 |  |  |  |  | 
O=C(c1ccc(F)c(C(F)(F)F)c1)N1CCn2nc(OCc3ccccc3)cc2C1 [Example B109] | 135.3 |  | 58 |  |  |  |  | 
N#Cc1ccc(COc2cc3n(n2)CCN(C(=O)c2ccccc2)C3)cc1 [Example B110] | 155.6 | > 30200 | 30 |  |  |  |  | 
O=C(c1cccc(Cl)c1)N1CCn2nc(OCc3ccc(F)cc3)cc2C1 [Example B111] | 125.2 | 380 | 49 |  |  |  |  | 
O=C(c1cc(F)ccc1F)N1CCn2nc(OCc3ccccc3)cc2C1 [Example B114] | 123.7 | 417 | 72 |  |  |  |  | 
O=C(c1cccc(F)c1F)N1CCn2nc(OCc3ccccc3)cc2C1 [Example B115] | 122.7 | 537 | 40 |  |  |  |  | 

Second part, led by results:

melting point [°C] | EC50 (human mGluR5) [nM] | Emax (human mGluR5) [%] | Structure (SMILES) | % Reversal of amphetamine-induced hyperlocomotion ([1]; 3 mg/kg test compound p.o. + 1 mg/kg Amph s.c.) [%] | % Reversal of amphetamine-induced hyperlocomotion ([1]; 10 mg/kg test compound p.o. + 1 mg/kg Amph s.c.) [%] | % Reversal of amphetamine-induced hyperlocomotion ([1]; 30 mg/kg test compound p.o. + 1 mg/kg Amph s.c.) [%] | % Reversal of amphetamine-induced hyperlocomotion ([1]; 56.6 mg/kg test compound p.o. + 1 mg/kg Amph s.c.) [%] | % Reversal of amphetamine-induced hyperlocomotion ([1]; 100 mg/kg test compound p.o. + 1 mg/kg Amph s.c.) [%]
124 | > 30200 | 15 | N#Cc1cccc(COc2cc3n(n2)CCN(C(=O)c2cc(F)cc(F)c2)C3)c1 [Example B119] |  |  |  |  | 
115.4 | 97.7 | 68 | O=C(c1ccc(F)cc1F)N1CCn2nc(OCc3cccc(F)c3)cc2C1 [Example B129] |  |  |  |  | 
116.8 | > 30200 | 16 | N#Cc1cccc(COc2cc3n(n2)CCN(C(=O)c2ccccc2Cl)C3)c1 [Example B131] |  |  |  |  | 
118.1 | 224 | 42 | O=C(c1cc(F)cc(F)c1)N1CCn2nc(OCc3ccccc3F)cc2C1 [Example B132] |  |  |  |  | 
132.8 | 166 | 76 | O=C(c1ccc(F)cc1F)N1CCn2nc(OCc3ccccc3F)cc2C1 [Example B133] |  |  |  |  | 
132.4 | 141 | 71 | O=C(c1ccccc1F)N1CCn2nc(OCc3ccccc3F)cc2C1 [Example B134] |  |  |  |  | 
187.7 |  |  | O=C(c1ccc(F)cc1)N1CCn2nc(OCc3ccccc3)cc2C1 [test compound, 2-(benzyloxy)-5-[(4-fluorophenyl)carbonyl]-4,5,6,7-tetrahydropyrazolo[1,5-a]pyrazine] | 14 | 32 | 44 | 42 | 41
